Experimental data: paper PMC8080777, “Discovery, optimization, and evaluation of non-bile acid FXR/TGR5 dual agonists” (Scientific Reports, 2021)
“Also recorded” adds a separate entry of the source.

Legend:
FXR = molecular target: T1, FXR (Homo sapiens, UniProt Q96RI1); assay: CHO cell-based FXR luciferase reporter assay (Indigo Biosciences); details: for FXR Efficacy (%) (1 µM) / FXR Efficacy (%) (10 µM): % vs OCA 1 µM as 100%
T1 construct: host or cells: CHO cells
T1 sequence (Q96RI1 1-486): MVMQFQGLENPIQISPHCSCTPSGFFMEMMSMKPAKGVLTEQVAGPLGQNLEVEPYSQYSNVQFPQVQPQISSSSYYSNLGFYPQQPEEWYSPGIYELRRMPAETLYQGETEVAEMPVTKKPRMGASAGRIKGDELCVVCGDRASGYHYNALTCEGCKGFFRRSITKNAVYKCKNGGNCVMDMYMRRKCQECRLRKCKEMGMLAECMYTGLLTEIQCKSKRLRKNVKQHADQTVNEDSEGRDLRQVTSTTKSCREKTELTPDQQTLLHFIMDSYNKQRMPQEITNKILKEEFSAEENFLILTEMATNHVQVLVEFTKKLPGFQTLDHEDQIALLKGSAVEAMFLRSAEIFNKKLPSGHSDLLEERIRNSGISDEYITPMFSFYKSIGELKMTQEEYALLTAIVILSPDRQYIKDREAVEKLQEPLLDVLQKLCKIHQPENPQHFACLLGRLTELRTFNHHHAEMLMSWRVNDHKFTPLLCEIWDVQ
Method: To evaluate direct agonist activities against FXR, test compounds were evaluated using a CHO cell-based FXR assay by Indigo Biosciences (State College, PA), in which cells were transfected with an FXR luciferase reporter system.
To directly evaluate the in vitro agonist activity towards FXR, test compounds were evaluated in CHO cells transfected with FXR responsive luciferase reporter (Nuclear Receptor & In Vitro Toxicology Solutions, Indigo Biosciences, State College, PA, USA). […] Each compound was tested in duplicate, and the average value was reported[35],[36].
(§1) The cell recovery medium (CRM, Human Farnesoid X Receptor (NR1H4, FXR reporter assay system, Indigo Biosciences, State College, PA, USA) and compound screening medium (CSM, Human Farnesoid X Receptor (NR1H4, FXR reporter assay system, Indigo Biosciences, State College, PA, USA) were removed from the freezer and thawed in a water bath at 37 °C. Test compounds were dissolved in dimethyl sulfoxide (DMSO, FUJIFILM Wako Pure Chemical Corporation, Osaka city, Osaka, Japan), and the treatment medium was prepared and diluted with CSM to achieve a final concentration of 0.2% total DMSO. The reporter cells were thawed by transferring 3.3 mL CRM at 37 °C into tubes of frozen cells. The tube containing reporter cells was recapped, and it was immediately place in a 37 °C water bath for 5 min. The reporter cells were gently inverted several times, and 100 µL cell suspension was dispensed into each well. One hundred microliters of treatment media was added into wells. Subsequently, the assay plate was kept at 37 °C, and it was incubated with 5% CO2 for 22 h. To prepare luciferase detection reagent (LDR), the detection substrate was gently mixed with detection buffer, media contents were removed from each well, and 100 µL LDR was added to each well of the assay plate. The assay plate was allowed to rest at room temperature for 5 min, and luminescence was quantified using the Multi-Mode Microplate Reader (FlexStation 3, Molecular Devices Inc., San Jose, CA, USA)[36].
S4. In vitro, in vivo assay, and selectvity.
To directly evaluate the in vitro agonist activity towards FXR, test compounds were evaluated in CHO cells transfected with FXR responsive luciferase reporter (Nuclear Receptor & In Vitro Toxicology Solutions, Indigo Biosciences, State College, PA, USA). Cells were incubated with […]
(FlexStation 3, Molecular Devices Inc., San Jose, CA, USA). Efficacies are reported relative to […]
reporter on of 1 µM. Each compound was tested in duplicate, and the average value was […]
as §1, with “sulfoxide (DMSO ,” for “sulfoxide (DMSO,”, “Osaka, Jap an),” for “Osaka, Japan),”, “a 37°C” for “a 37 °C”, “5% CO 2” for “5% CO2”, “using […]” for “using the Multi-Mode Microplate Reader (FlexStation 3, Molecular Devices Inc., San Jose, CA, USA)[36].”

TGR5 = molecular target: T2, TGR5 (Homo sapiens, UniProt Q8TDU6); assay: TGR5 cAMP assay in CHO cells transfected with TGR5 (cAMP Hunter eXpress, Discover X); assay type: cell-based
T2 construct: host or cells: CHO cells
T2 sequence (Q8TDU6 1-330): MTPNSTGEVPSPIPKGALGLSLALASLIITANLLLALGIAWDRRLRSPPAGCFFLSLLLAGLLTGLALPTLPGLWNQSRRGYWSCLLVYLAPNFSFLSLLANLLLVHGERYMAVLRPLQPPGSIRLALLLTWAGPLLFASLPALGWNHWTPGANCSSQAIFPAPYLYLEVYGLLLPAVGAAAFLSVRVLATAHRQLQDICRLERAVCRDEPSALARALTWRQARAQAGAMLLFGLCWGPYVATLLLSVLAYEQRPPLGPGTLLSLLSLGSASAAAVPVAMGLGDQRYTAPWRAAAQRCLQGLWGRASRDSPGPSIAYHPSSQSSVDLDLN
Method: TGR5 agonist activity was evaluated by transfecting CHO cells with TGR5 using the Discover X expression kit (cAMP Hunter eXpress GPCR Assay, Discover X Fremont, CA). Cells were incubated with test compounds for 0.5 h, and intracellular cAMP levels were measured using the multi-mode microplate reader.
(§2) TGR5 agonist activity was evaluated by transfecting CHO cells with TGR5 using the Discover X expression kit (cAMP Hunter eXpress Assay Kit, Discover X Fremont, CA, USA). Cells were incubated with the test compounds for 0.5 h, and intracellular cAMP levels were measured using Multi-Mode Microplate Reader (FlexStation 3, Molecular Devices Inc., San Jose, CA, USA).
Each compound was tested at concentrations of 10, 1, or 0.1 µM in duplicate (n = 2), with the average value shown.
S4. In vitro, in vivo assay, and selectvity. […]
In vitro TGR5 agonist assay protocol
as §2
Each compound was tested at concentrations of 10, 1, or 0.1 µM in duplicate (n=2), with the […]
parameter logistic equation, Y = min + (max - min)/(1 + 10^(n * (log10(EC50) - log10(conc)))), in […]

Row | Compound | FXR agonist activity (in words) (FXR) | FXR Efficacy (%) (1 µM) (FXR) | FXR Efficacy (%) (10 µM) (FXR) | TGR5 agonist activity (in words) (TGR5) | TGR5 Efficacy (%) (10 µM) (TGR5; % vs INT-767 10 µM as 100%) | TGR5 Efficacy (%) (0.1 µM) (TGR5; 0.1 µM, % vs INT-767 10 µM as 100%) | TGR5 Efficacy (%) (1 µM) (TGR5; 1 µM, % vs INT-767 10 µM as 100%)
1 | COC(=O)/C=C/c1cccc(N(Cc2ccc(-c3ccc(N(C)C)cc3)cc2)C(=O)c2ccncc2C)c1 [Compound 13a] | strong FXR agonist activity with full efficacy | 24.6 | 100.2 | inactive against TGR5 | -3.1 |  | 
2 | COc1cnccc1C(=O)N(Cc1ccc(-c2ccc(N(C)C)cc2)cc1)c1cc(Cl)cc(Cl)c1 [Compound 13aa] | weak dual agonist activity | 68.6 |  | weak dual agonist activity | 21.5 |  | 
3 | CN(C)c1ccc(-c2ccc(CN(C(=O)c3ccnnc3)c3cc(Cl)cc(Cl)c3)cc2)cc1 [Compound 13ab] | did not have any activity against either FXR or TGR5 | 0.5 |  | did not have any activity against either FXR or TGR5 | -12 |  | 
4 | CN(C)c1ccc(-c2ccc(CN(C(=O)c3ccccc3Cl)c3cc(Cl)cc(Cl)c3)cc2)cc1 [Compound 13ac] | strong FXR activities | 84.3 |  |  | 0.2 |  | 
5 | CN(C)c1ccc(-c2ccc(CN(C(=O)C3CCC(O)CC3)c3cc(Cl)cc(Cl)c3)cc2)cc1 (stereo not drawn) [Compound 13ae] | strong FXR activities | 101.4 |  |  | -1.5 |  | 
6 | CN(C)c1ccc(-c2ccc(CN(C(=O)c3ccc(O)cc3Cl)c3cc(Cl)cc(Cl)c3)cc2)cc1 [Compound 13af] | strong FXR activities | 108.2 |  |  | -0.2 |  | 
7 | COc1ccc(C(=O)N(Cc2ccc(-c3ccc(N(C)C)cc3)cc2)c2cc(Cl)cc(Cl)c2)c(Cl)c1 [Compound 13ag] | strong FXR activities | 136.5 |  | significantly low potency against TGR5 | 1.1 |  | 
8 | Cc1cnccc1C(=O)N(Cc1ccc(-c2ccccc2)cc1)c1cc(Cl)cc(Cl)c1 [Compound 13ah] |  | 17.7 |  | TGR5 full agonist | 118.6 |  | 
9 | COC(=O)/C=C/c1cccc(N(Cc2ccc(-c3ccc(N(C)C)cc3)cc2)C(=O)c2ccncc2)c1 [Compound 13b] |  | 16.7 | 86.9 | inactive against TGR5 | -2.8 |  | 
10 | COC(=O)/C=C/c1cccc(N(Cc2ccc(-c3ccc(N(C)C)cc3)cc2)C(=O)c2cccnc2)c1 [Compound 13c] |  |  | 68.1 |  | 1.7 |  | 
11 | COC(=O)/C=C/c1cccc(N(Cc2ccc(-c3ccc(N(C)C)cc3)cc2)C(=O)c2ccccc2)c1 [Compound 13d] |  | 24.5 | 88.9 |  | 0.0 |  | 
12 | Cc1cnccc1C(=O)N(Cc1ccc(-c2ccc(N(C)C)cc2)cc1)c1ccc(F)cc1C [Compound 13e] |  | 2.0 |  | strong TGR5 agonist activity | 87.5 |  | 
13 | Cc1cc(F)ccc1N(Cc1ccc(-c2ccc(N(C)C)cc2)cc1)C(=O)c1ccncc1 [Compound 13f] |  | 0.5 |  |  | 32.0 |  | 
14 | Cc1cc(F)ccc1N(Cc1ccc(-c2ccc(N(C)C)cc2)cc1)C(=O)c1cccnc1 [Compound 13g] |  | 1.2 |  |  | 0.8 |  | 
15 | COC(=O)/C=C/c1ccc(C)c(N(Cc2ccc(-c3ccc(N(C)C)cc3)cc2)C(=O)c2ccncc2C)c1 [Compound 13h] |  | 25.3 |  |  | 0.2 |  | 
16 | COC(=O)/C=C/c1cccc(N(Cc2ccc(-c3ccc(N(C)C)cc3)cc2)C(=O)c2ccncc2C)c1C [Compound 13i] | weak FXR/TGR5 dual agonist activity | 32.1 |  | weak FXR/TGR5 dual agonist activity | 47.2 |  | 
17 | Cc1cnccc1C(=O)N(Cc1ccc(-c2ccc(N(C)C)cc2)cc1)c1cc(Cl)cc(Cl)c1 [Compound 13j] | potent FXR/TGR5 dual agonist activity; also recorded: dual potencies against both FXR and TGR5 | 62.1 |  | potent FXR/TGR5 dual agonist activity; also recorded: dual potencies against both FXR and TGR5 | 59.7 |  | 
18 | Cc1cnccc1C(=O)N(Cc1ccc(-c2ccc(N(C)C)cc2)cc1)c1cc(Cl)cc(Br)c1 [Compound 13k] | dual potencies against both FXR and TGR5 | 75.9 |  | dual potencies against both FXR and TGR5 | 47.4 |  | 
19 | Cc1cc(C)cc(N(Cc2ccc(-c3ccc(N(C)C)cc3)cc2)C(=O)c2ccncc2C)c1 [Compound 13l] |  | 37.6 |  |  | 48.5 |  | 
20 | COC(=O)/C=C/c1cc(Cl)cc(N(Cc2ccc(-c3ccc(N(C)C)cc3)cc2)C(=O)c2ccncc2C)c1 [Compound 13m] |  | 72.5 |  |  | 6.7 |  | 
21 | CCC1C(O)C2C3CCC(C(C)CCOS(=O)(=O)O)C3(C)CCC2C2(C)CCC(O)CC12 (stereo not drawn) [INT-767, reference compound] |  |  |  |  | 100 | 1.7 | 25.5
